Consider 11 molecules from ChEMBL document CHEMBL1201862, “PubChem BioAssay data set” (2004).

Test in all cases: NCI-60 cell line screen, 48 h
Experiment [1] relates to 786-0.
The test system of experiment [2] is HL-60.
Experiment [3] has as its system SN12C.
The subject of experiment [4] is MOLT-4.
For experiment [5], the system named is RXF 393.
The test system of experiment [6] is SK-MEL-5.
Experiment [7] deals with CAKI-1.
Experiment [8] relates to COLO 205.
The subject of experiment [9] is SR.
In experiment [10] the test system is SF-295.
In experiment [11] the test system is ACHN.
Experiment [12] concerns NCI-H226.
Experiment [13] concerns EKVX.
Experiment [14] relates to OVCAR-8.
The test system of experiment [15] is SK-MEL-28.
In experiment [16] the test system is SW-620.
Experiment [17] relates to UACC-62.
For experiment [18], the system named is LOX IMVI.
Experiment [19] concerns HOP-92.

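Values below derive from 48-hour exposures of cells grown in 96-well plates, with endpoints linearly interpolated between the two concentrations bracketing the appropriate inhibition level. Here, GI50 denotes the concentration required for 50% inhibition of growth.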 Calls of active or inactive are those of the source. Cut-off read from the data, not from the text of the source: active = GI50 up to about 1.1 µM and inactive = higher.

In the case of `C1CN2CCO[SiH](O1)OCC2`, the GI50 in experiment [1], in experiment [2], in [3], in experiment [4], in [5] and in [6] was > 100 µM (inactive) throughout. Besides, the GI50 in [7], in [8], in experiment [9], in experiment [10], in experiment [11] and in experiment [12] was > 100 µM (inactive) throughout. Also, the GI50 in experiment [13], in experiment [14], in experiment [15], in experiment [16] and in [17] was > 100 µM (inactive) each time.

For the molecule `COC(=O)[C@@]1(C)C(=O)CC[C@@H]1C=O`, the GI50 in experiment [1] was > 100 µM (inactive); in [2], 60.5 µM (inactive); in experiment [3], > 100 µM (inactive); in [4], > 100 µM (inactive); in experiment [6], > 100 µM (inactive); in experiment [7] it was > 100 µM (inactive). Also, the GI50 in experiment [8] is > 100 µM (inactive); in experiment [9], 82.2 µM (inactive); in experiment [10], > 100 µM (inactive); in experiment [11], > 100 µM (inactive); in [12] it was > 100 µM (inactive); in experiment [13] it was > 100 µM (inactive). Besides, the GI50 in experiment [14], in [16], in experiment [17] and in experiment [18] was > 100 µM (inactive) throughout.

For `O=C1N=C(Nc2ccccc2Cl)SC1C(=O)Nc1ccc([N+](=O)[O-])cc1[N+](=O)[O-]` (stereo not given), the GI50 in [1], in [2], in experiment [3], in experiment [4], in experiment [5] and in experiment [6] was > 100 µM (inactive) each time. The GI50 in experiment [7] is > 100 µM (inactive); in experiment [19] it was 32.5 µM (inactive); in experiment [8] it was > 100 µM (inactive); in [9], > 100 µM (inactive); in experiment [10], > 100 µM (inactive); in experiment [11], > 100 µM (inactive). The GI50 in experiment [12] was 82.8 µM (inactive); in experiment [13], > 100 µM (inactive); in experiment [14], > 100 µM (inactive); in experiment [15], > 100 µM (inactive); in experiment [16], > 100 µM (inactive); in experiment [17] it was > 100 µM (inactive).

Regarding `COC(=O)c1nc(C(=O)OC)c2c([nH]c3ccccc32)c1C(=O)OC`, the GI50 in [1] is > 100 µM (inactive); in experiment [3], > 100 µM (inactive); in experiment [4] it was 82.6 µM (inactive); in experiment [5], 31.8 µM (inactive); in experiment [6], 9.79 µM (inactive); in [7] it was > 10 µM (inactive). The GI50 was > 100 µM (inactive) in experiment [19]; > 100 µM (inactive) in experiment [8]; 70.3 µM (inactive) in [9]; 91.4 µM (inactive) in [10]; 37.7 µM (inactive) in experiment [12]; > 100 µM (inactive) in experiment [14]. The GI50 in experiment [15] was 88.9 µM (inactive); in experiment [16], > 100 µM (inactive); in [17] it was 85.1 µM (inactive); in [18], 58.5 µM (inactive).

As for `COc1ccc(/C=C2\CCC(CCN(C)C)(C3=CCCC3)C2=O)cc1Br` (stereo not given), the GI50 in experiment [1] is 3.78 µM (inactive); in experiment [2], 2.52 µM (inactive); in experiment [3], 9.95 µM (inactive); in experiment [4] it was 2.7 µM (inactive); in experiment [5] it was 2.22 µM (inactive); in experiment [6], 1.71 µM (inactive). The GI50 in experiment [7] was 8.81 µM (inactive); in experiment [19], 2.97 µM (inactive); in [8] it was 1.58 µM (inactive); in [9] it was 1.51 µM (inactive); in experiment [10] it was 3.85 µM (inactive); in experiment [11], 9.29 µM (inactive). The GI50 in experiment [12] is 16.9 µM (inactive); in experiment [13], 0.0306 µM (active); in [14], 9.08 µM (inactive); in [15], 2.76 µM (inactive); in [16], 7.66 µM (inactive); in experiment [18] it was 4.06 µM (inactive).

Regarding `Cc1ccc(C)c(NC(=O)CC/C(=N\NC(=O)C(=O)NN)C(C)C(=O)c2ccc(O)cc2)c1` (stereo not given), the GI50 in experiment [1], in experiment [3], in experiment [4], in experiment [5], in [6] and in experiment [7] was > 100 µM (inactive) throughout. In addition, the GI50 in [19], in experiment [8], in experiment [9], in experiment [10], in experiment [11] and in experiment [12] was > 100 µM (inactive) each time. The GI50 in [13], in [15], in [16], in [17] and in [18] was > 100 µM (inactive) each time.

Take `O=C(NCCn1ccnn1)Nc1ccccc1`: the GI50 in [1], in experiment [2], in experiment [3], in [4], in experiment [6] and in experiment [7] was > 100 µM (inactive) each time. Further, the GI50 in experiment [19], in experiment [8], in [9], in experiment [10], in experiment [11] and in experiment [13] was > 100 µM (inactive) each time. In addition, the GI50 in [14], in [15], in [16] and in experiment [18] was > 100 µM (inactive) each time.

`C/C=C/C=C/[C@H]1Cc2cc(O)cc(O)c2O1`: the GI50 in experiment [1] is > 100 µM (inactive); in [2], 26.1 µM (inactive); in [3], 55.3 µM (inactive); in experiment [4] it was 31.8 µM (inactive); in experiment [5] it was > 100 µM (inactive); in experiment [6], 49.7 µM (inactive). Besides, the GI50 in experiment [7] is 58.9 µM (inactive); in experiment [19] it was > 100 µM (inactive); in [8], 55 µM (inactive); in [9] it was 78.5 µM (inactive); in experiment [10], 57.3 µM (inactive); in experiment [11], 52.5 µM (inactive). Also, the GI50 in [13] is 55.5 µM (inactive); in [14], 60.4 µM (inactive); in experiment [15], > 100 µM (inactive); in [16] it was 58.6 µM (inactive); in experiment [17] it was 22.9 µM (inactive); in experiment [18], 47.9 µM (inactive).

In the case of `CC(C)CS(=O)(=O)/C(=C(\c1ccc(Br)cc1)S(=O)(=O)CC(C)C)c1ccc(Br)cc1`, the GI50 was > 100 µM (inactive) in experiment [1]; > 100 µM (inactive) in experiment [3]; > 100 µM (inactive) in experiment [4]; 90.2 µM (inactive) in experiment [5]; 1.41 µM (inactive) in experiment [6]; > 100 µM (inactive) in [7]. Moreover, the GI50 in [19], in experiment [8], in experiment [9], in experiment [10], in [11] and in experiment [12] was > 100 µM (inactive) throughout. Moreover, the GI50 in [13], in experiment [14], in experiment [15], in experiment [16], in experiment [17] and in experiment [18] was > 100 µM (inactive) throughout.

With `CCCC(Sc1ccccc1)P(=O)(c1ccccc1)c1ccccc1` (stereo not given), the GI50 in experiment [1] was 37.7 µM (inactive); in [2], 22.3 µM (inactive); in experiment [3] it was 43.5 µM (inactive); in experiment [4], 20.6 µM (inactive); in experiment [5], 41.8 µM (inactive); in experiment [6], 25.4 µM (inactive). The GI50 in experiment [7] was 42.3 µM (inactive); in [19], 21.8 µM (inactive); in [8], 31.4 µM (inactive); in experiment [9] it was 20.6 µM (inactive); in experiment [10], 27.8 µM (inactive); in experiment [11] it was 19.8 µM (inactive). Also, the GI50 in experiment [13] was 24 µM (inactive); in [14], 36.2 µM (inactive); in experiment [15], 42.1 µM (inactive); in experiment [16] it was 41.9 µM (inactive); in experiment [17], 15.1 µM (inactive); in experiment [18], 35.6 µM (inactive).

As for `O=C1[C@H]2ON(c3ccccc3)C(c3ccc(Cl)cc3)[C@H]2C(=O)N1c1ccc(Cc2ccc(N3C(=O)[C@@H]4ON(c5ccccc5)C(c5ccc(Cl)cc5)[C@@H]4C3=O)cc2)cc1` (stereo not given in full), the GI50 in [1] was > 100 µM (inactive); in experiment [2], > 100 µM (inactive); in experiment [3], > 100 µM (inactive); in [4], > 100 µM (inactive); in [5], > 100 µM (inactive); in experiment [6] it was 61.7 µM (inactive). For the same molecule, the GI50 in [7], in [8], in experiment [9], in experiment [10], in [11] and in experiment [12] was > 100 µM (inactive) throughout. In addition, the GI50 in experiment [13], in experiment [14], in experiment [15], in experiment [16], in experiment [17] and in experiment [18] was > 100 µM (inactive) throughout.
